Ten molecules from ChEMBL document CHEMBL5303304, “EUbOPEN Chemogenomics Library - IncuCyte” (2023) can be followed below.

Type in all cases: toxicity, cell-based
The test system of one series is HEK-293T. Kind of series: Incucyte cell viability with HEK293T. Particulars: human, 10 µM, compound concentration 10 uM.
The next series relates to Fibroblast. Kind of series: Incucyte cell viability with human fibroblast. The conditions noted are these: 10 µM, compound concentration 10 uM.
The subject of another series is U2OS. Kind of series: Incucyte cell viability with U2OS. Particulars: human, 10 µM, compound concentration 10 uM.

Each structure is given as a SMILES string.
Note: unitless GR value; below 1 slowed growth and below 0 cell loss.

Take `C/C=C1\C(=O)CC2C3CCC4=CC(=O)CC[C@]4(C)C3CC[C@]12C` (stereo partly specified): the “Growth Rate” value in the series with HEK-293T (6 h, replicate number 1) is listed as 0.43; in the series on HEK-293T (6 h, replicate number 2), 0.44; in the series on HEK-293T (12 h, replicate number 1), 0.69; in the series with HEK-293T (12 h, replicate number 2) it was 0.92; with HEK-293T (18 h, replicate number 1) it was 0.83; with HEK-293T (24 h, replicate number 1) it was 0.84. Also, the “Growth Rate” value is given as -0.19 in the series with Fibroblast (6 h, replicate number 1); 0.33 in the series with Fibroblast (6 h, replicate number 2); 0.83 in the series on Fibroblast (12 h, replicate number 1); 0.88 in the series on Fibroblast (12 h, replicate number 2); 0.64 in the series with Fibroblast (18 h, replicate number 1); 0.96 in the series with Fibroblast (18 h, replicate number 2). For the same molecule, the “Growth Rate” value in the series on Fibroblast (24 h, replicate number 1) was 0.81; with Fibroblast (24 h, replicate number 2), 0.9; in the series with U2OS (0 h, replicate number 1), 0.15; in the series with U2OS (6 h, replicate number 1), 0.52; in the series with U2OS (12 h, replicate number 1), 0.73; with U2OS (18 h, replicate number 1), 0.92.
For `OC(CN1CCC(Cc2ccc(F)cc2)CC1)c1ccc(Cl)cc1` (stereo unspecified) [ELIPRODIL], the “Growth Rate” value with HEK-293T (0 h, replicate number 2) was 0.62; with HEK-293T (12 h, replicate number 1) it was 0.57; with HEK-293T (18 h, replicate number 1), 0.88; in the series on Fibroblast (0 h, replicate number 2), -0.95; in the series with Fibroblast (6 h, replicate number 1) it was -0.61; in the series with Fibroblast (6 h, replicate number 2) it was 0.5. Besides, the “Growth Rate” value is -0.13 in the series on Fibroblast (12 h, replicate number 1); -0.72 in the series on U2OS (0 h, replicate number 2); 0.95 in the series with U2OS (12 h, replicate number 2).
Take `O=C(N[C@H](Cc1ccccc1)C(=O)O)c1cccc(OCc2cccnc2)c1.O=CO`: the “Growth Rate” value was 0.73 with HEK-293T (6 h, replicate number 1); 1 in the series with HEK-293T (18 h, replicate number 1); 0.68 with Fibroblast (6 h, replicate number 1); 0.47 with Fibroblast (12 h, replicate number 1); 0.7 with Fibroblast (12 h, replicate number 2); 0.93 in the series with Fibroblast (18 h, replicate number 1). Moreover, the “Growth Rate” value with Fibroblast (18 h, replicate number 2) stood at 0.81; in the series on Fibroblast (24 h, replicate number 1) it was 0.88; with U2OS (0 h, replicate number 1), 0.75; with U2OS (0 h, replicate number 2) it was 0.39; in the series on U2OS (6 h, replicate number 1), 0.69; with U2OS (6 h, replicate number 2) it was 0.67. Moreover, the “Growth Rate” value amounted to 0.66 with U2OS (12 h, replicate number 1); 0.77 in the series with U2OS (12 h, replicate number 2); 0.98 in the series on U2OS (18 h, replicate number 2); 0.8 in the series with U2OS (24 h, replicate number 1); 0.86 with U2OS (24 h, replicate number 2).
For `CN(C)[C@H]1CCc2nc(NC(=O)c3cccc(Cn4cc(-c5ccc(C#N)cc5)cn4)c3)sc2C1.O=C(O)C(F)(F)F`, the “Growth Rate” value in the series on HEK-293T (0 h, replicate number 2) is -0.96; in the series with HEK-293T (6 h, replicate number 1) it was 0.98; in the series with HEK-293T (6 h, replicate number 2), 0.68; in the series on HEK-293T (12 h, replicate number 1), 0.52; in the series with HEK-293T (12 h, replicate number 2) it was 0.74; with HEK-293T (18 h, replicate number 1) it was 0.59. The “Growth Rate” value in the series on HEK-293T (18 h, replicate number 2) was 0.68; in the series with HEK-293T (24 h, replicate number 1) it was 0.51; with HEK-293T (24 h, replicate number 2) it was 0.62; with Fibroblast (0 h, replicate number 1), -0.59; with Fibroblast (0 h, replicate number 2), -0.64; in the series with Fibroblast (24 h, replicate number 2), 0.57. Further, the “Growth Rate” value was 0.89 in the series on U2OS (18 h, replicate number 2) and 0.75 in the series on U2OS (24 h, replicate number 2).
Consider `CCOC(=O)C1=C(C)NC(C)=C(C(=O)OC)C1c1cccc([N+](=O)[O-])c1` (stereo unspecified) [NITRENDIPINE], for which the “Growth Rate” value is reported as 0.11 in the series on HEK-293T (6 h, replicate number 1); -0.36 with HEK-293T (6 h, replicate number 2); 0.63 in the series on HEK-293T (12 h, replicate number 2); 0.99 with HEK-293T (18 h, replicate number 2); 0.95 in the series on HEK-293T (24 h, replicate number 2); -0.46 in the series with Fibroblast (0 h, replicate number 1). Further, the “Growth Rate” value is -0.98 in the series with Fibroblast (0 h, replicate number 2); -0.02 in the series on Fibroblast (18 h, replicate number 1); 0.95 in the series on Fibroblast (24 h, replicate number 2); 0.22 in the series with U2OS (0 h, replicate number 1); -0.99 in the series on U2OS (0 h, replicate number 2); 0.47 with U2OS (6 h, replicate number 1). Further, the “Growth Rate” value in the series with U2OS (6 h, replicate number 2) amounted to 0.51; in the series on U2OS (12 h, replicate number 1), 0.89; in the series with U2OS (12 h, replicate number 2), 0.71; in the series on U2OS (18 h, replicate number 2), 0.86; in the series with U2OS (24 h, replicate number 1), 0.91; in the series with U2OS (24 h, replicate number 2), 0.9.
For the molecule `O=C1CCCc2[nH]c(-c3ccnc(NCC4CC4)c3)c(Nc3ccccc3)c21`, the “Growth Rate” value in the series on HEK-293T (6 h, replicate number 2) is 0.41; in the series with HEK-293T (12 h, replicate number 2), 0.66; in the series with HEK-293T (18 h, replicate number 1), 0.94; with HEK-293T (18 h, replicate number 2) it was 0.62; in the series on HEK-293T (24 h, replicate number 1), 0.88; with HEK-293T (24 h, replicate number 2) it was 0.7. The “Growth Rate” value in the series with Fibroblast (0 h, replicate number 1) is on record as -1; in the series with Fibroblast (6 h, replicate number 1), -0.03; in the series on Fibroblast (12 h, replicate number 1) it was 0.34; with Fibroblast (12 h, replicate number 2), 0.57; with Fibroblast (18 h, replicate number 1) it was 0.49; in the series on Fibroblast (18 h, replicate number 2) it was 0.89. Also, the “Growth Rate” value turned out to be 0.45 in the series on Fibroblast (24 h, replicate number 1); 0.88 with Fibroblast (24 h, replicate number 2); 0.75 with U2OS (0 h, replicate number 1); 0.51 in the series on U2OS (6 h, replicate number 1); 0.68 in the series with U2OS (12 h, replicate number 1); 0.72 in the series with U2OS (18 h, replicate number 1). Further, the “Growth Rate” value is listed as 0.59 with U2OS (24 h, replicate number 1) and 1 with U2OS (24 h, replicate number 2).
As to `Cc1ccc(NS(=O)(=O)c2ccc3c(c2)C2C=CCC2C(c2ccc(C(=O)O)cc2)N3)cc1C` (stereo unspecified), the “Growth Rate” value with HEK-293T (0 h, replicate number 2) is given as -0.87; with HEK-293T (12 h, replicate number 1), 0.89; in the series with HEK-293T (18 h, replicate number 1), 0.79; with Fibroblast (0 h, replicate number 2), 0.82; in the series with Fibroblast (6 h, replicate number 1), -0.66; in the series with Fibroblast (6 h, replicate number 2), 0.01. Further, the “Growth Rate” value with Fibroblast (12 h, replicate number 1) is reported as 0.86; in the series with Fibroblast (12 h, replicate number 2), 0.36; with Fibroblast (18 h, replicate number 1) it was 0.83; in the series on Fibroblast (24 h, replicate number 1), 0.65; in the series on Fibroblast (24 h, replicate number 2), 0.72; in the series with U2OS (0 h, replicate number 1), 0.88. For the same molecule, the “Growth Rate” value in the series with U2OS (6 h, replicate number 1) stood at 0.79; in the series on U2OS (12 h, replicate number 1), 0.82; in the series with U2OS (18 h, replicate number 1), 0.87; with U2OS (18 h, replicate number 2) it was 0.99; in the series with U2OS (24 h, replicate number 1) it was 0.93; in the series on U2OS (24 h, replicate number 2) it was 0.91.
For the molecule `CCN1CCN(Cc2ccc(Nc3ncc(F)c(-c4cc(F)c5nc(C)n(C(C)C)c5c4)n3)nc2)CC1` [ABEMACICLIB], the “Growth Rate” value is recorded as -1 with HEK-293T (0 h, replicate number 1); -0.03 with HEK-293T (0 h, replicate number 2); 0.74 in the series with HEK-293T (6 h, replicate number 1); 0.78 in the series with HEK-293T (6 h, replicate number 2); 0.31 in the series on HEK-293T (12 h, replicate number 1); 0.37 with HEK-293T (12 h, replicate number 2). For the same molecule, the “Growth Rate” value is listed as 0.35 in the series with HEK-293T (18 h, replicate number 1); 0.44 in the series with HEK-293T (18 h, replicate number 2); 0.54 in the series on HEK-293T (24 h, replicate number 1); 0.44 with HEK-293T (24 h, replicate number 2); -1 with Fibroblast (0 h, replicate number 1); -0.95 in the series with U2OS (0 h, replicate number 1). Further, the “Growth Rate” value is given as 0.83 with U2OS (12 h, replicate number 1); 0.9 in the series with U2OS (12 h, replicate number 2); 0.62 in the series with U2OS (18 h, replicate number 1); 0.56 with U2OS (18 h, replicate number 2); 0.63 in the series on U2OS (24 h, replicate number 1); 0.4 with U2OS (24 h, replicate number 2).
Turning to `Cc1nc2ccc(Oc3ccc(F)cc3)cc2c(=O)n1C[C@H]1CCCN(C(C)C)C1.Cl`, the “Growth Rate” value in the series on HEK-293T (6 h, replicate number 1) turned out to be 0.43; with HEK-293T (6 h, replicate number 2) it was 0.87; in the series on HEK-293T (12 h, replicate number 1), 0.27; in the series on HEK-293T (12 h, replicate number 2) it was 0.35; with HEK-293T (18 h, replicate number 1), 0.16; in the series with HEK-293T (18 h, replicate number 2), 0.4. Further, the “Growth Rate” value is given as 0.17 with HEK-293T (24 h, replicate number 1); 0.23 in the series with HEK-293T (24 h, replicate number 2); -1 with Fibroblast (0 h, replicate number 1); 0.24 in the series on Fibroblast (6 h, replicate number 1); 0.12 in the series with Fibroblast (12 h, replicate number 1); 0.34 in the series on Fibroblast (12 h, replicate number 2). Further, the “Growth Rate” value in the series with Fibroblast (18 h, replicate number 1) is listed as 0.13; with Fibroblast (18 h, replicate number 2), 0.69; in the series with Fibroblast (24 h, replicate number 1), 0.18; in the series on Fibroblast (24 h, replicate number 2), 0.73; in the series with U2OS (0 h, replicate number 1), 0.57; in the series with U2OS (0 h, replicate number 2) it was -0.36. Moreover, the “Growth Rate” value with U2OS (6 h, replicate number 1) was 0.84; in the series with U2OS (24 h, replicate number 1) it was 0.95.
On to `FC(F)(F)Oc1ccc(-c2ccc3nnc(C(F)(F)F)n3c2)cc1`, for which the “Growth Rate” value with HEK-293T (0 h, replicate number 1) is 0.83; in the series on HEK-293T (0 h, replicate number 2), 0.64; in the series on HEK-293T (6 h, replicate number 1), 0.53; in the series with HEK-293T (18 h, replicate number 1), 1; in the series on Fibroblast (6 h, replicate number 1), -0.05; in the series on Fibroblast (6 h, replicate number 2) it was -1. Further, the “Growth Rate” value was -1 with Fibroblast (12 h, replicate number 1); 0.76 in the series with Fibroblast (12 h, replicate number 2); 0.42 in the series with Fibroblast (18 h, replicate number 1); 0.75 with Fibroblast (18 h, replicate number 2); 0.91 with Fibroblast (24 h, replicate number 2); 0.08 in the series with U2OS (6 h, replicate number 1). Further, the “Growth Rate” value amounted to 0.81 in the series with U2OS (6 h, replicate number 2); 0.82 in the series with U2OS (12 h, replicate number 1); 0.64 in the series on U2OS (12 h, replicate number 2); 0.74 with U2OS (18 h, replicate number 1); 0.92 with U2OS (18 h, replicate number 2); 0.91 in the series with U2OS (24 h, replicate number 1). Moreover, in the series on U2OS (24 h, replicate number 2), the “Growth Rate” value amounted to 0.96.
